Assay results taken from patent US8058395B2, “Chimeric protein comprising a green fluorescent ptotein fused to a transcription factor” (The United States of America as represented by the …, priority 1995, dated 2011).

How the values were obtained:
[1] = test system: GR; conditions: cited from earlier work
[2] = test system: GFP-ER (human estrogen receptor); experiment: Ligand effect on nuclear localization of GFP-ER in MCF7 cells; type: cell-based; conditions: GFP-ER already partially activated by medium
Procedure: GFP-fusion plasmids of the invention are tested for expression and subcellular localization by transfection into several mammalian cells. For example, GFP-GR plasmids were analyzed in C127 (mouse) cells, HeLa (human cervical cancer) cells, and MCF7 (human breast adenocarcinoma) cells (ATCC accession number HTB22). GFP-ER plasmids were analyzed in 1471.1 cells, C127 (mouse) cells, MCF7 (human breast adenocarcinoma) cells, and MDA-MB-231 (human breast adenocarcinoma) cells (ATCC accession number HTB 26). Localization is observed in the absence of added hormone in either-5% or 10% charcoal-stripped fetal calf serum. Cells having GFP-fusion plasmids are then treated with a selected ligand, and subcellular localization and quantitative observations are made.
Assay for Ligand Effects: GFP-fusion plasmids of the invention are assayed for effects of a selected ligand on subcellular localization by transfection into selected cells. C127 (mouse) cells, HeLa (human cervical cancer) cells, and MCF7 (human breast adenocarcinoma) cells (ATCC accession number HTB22) were each transfected with GFP-GR plasmids and with GFP-ER plasmids. Localization is first observed in the absence of added hormone in either 5% or 10% charcoal-stripped fetal calf serum. Cells having GFP-fusion plasmids are then treated with a selected ligand, and subcellular localization and quantitative observations are made. […]

Q: Which results are given for `C[C@]12CC[C@@H]3c4ccc(O)cc4CC[C@H]3[C@@H]1CC[C@@H]2O` [17-β-estradiol]?
A: affinity for GR [1]: no affinity; nuclear GFP-ER signal after addition of agonist [2]: further concentration of nuclear signals on nuclear structures
